Literature values in patent publication US20070266895A1, “Aliphatic Hydrocarbon Soluble Red Dyes” (priority 2004, published 2007).

For Cc1ccccc1/N=N/c1ccc(/N=N/c2c(O)ccc3ccccc23)c(C)c1 [C.I. Solvent Red 24], the “direct solubility in essentially aliphatic hydrocarbon based fuels” value (diesel or home heating oil) is given as “virtually no direct solubility” and the “direct solubility in aromatic hydrocarbon containing gasolines” value (dry powder dye) is given as “limited direct solubility”.
